In patent publication US8404708B2, “Dual NK1/NK3 receptor antagonists” (Hoffmann-La Roche Inc., priority 2004, dated 2013):
Like-named read-outs stand apart in the source and are kept apart here.

Columns and labels:
[1] = target: T1, Recombinant human NK3 (hNK3) receptor (Homo sapiens, UniProt P29371); assay: NK3 receptor binding, [3H]SR142801 displacement, membrane preparations
T1 construct: expressed in transfected cells
T1 sequence (P29371 1-465): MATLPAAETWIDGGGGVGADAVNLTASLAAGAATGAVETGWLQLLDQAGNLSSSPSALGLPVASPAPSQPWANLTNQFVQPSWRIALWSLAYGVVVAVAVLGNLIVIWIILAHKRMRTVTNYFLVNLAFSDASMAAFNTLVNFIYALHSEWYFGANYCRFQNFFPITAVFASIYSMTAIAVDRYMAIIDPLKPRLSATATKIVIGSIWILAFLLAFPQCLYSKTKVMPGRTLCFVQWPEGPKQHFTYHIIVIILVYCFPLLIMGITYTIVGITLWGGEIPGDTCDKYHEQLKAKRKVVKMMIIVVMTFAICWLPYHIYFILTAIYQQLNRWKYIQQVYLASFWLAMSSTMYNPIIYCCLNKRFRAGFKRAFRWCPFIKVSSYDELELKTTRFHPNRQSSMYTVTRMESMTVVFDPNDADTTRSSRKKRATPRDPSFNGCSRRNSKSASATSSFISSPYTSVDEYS
Method in brief: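 Buffer: Tris-HCl 50 mM pH 7.4, BSA 0.1%, MnCl2 4 mM, phosphoramidon 1 μM. ~2.5 μg membrane/well, 90 min RT. NSB with SB222200 (10 μM). Vacuum filtration over 0.3% PEI-treated GF/C, cold Tris/BSA washes, scintillation count; duplicates, ≥2 experiments.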

human NK1 receptor = human NK1 receptor (Homo sapiens, UniProt P25103); assay: NK1 receptor binding, [3H]substance P displacement, CHO cell membranes
[2] = second value of the cell pKi NK1/NK3, hNK3 receptor, [3H]SR142801
[3] = first value of the cell pKi NK1/NK3, human NK1 receptor, [3H]substance P

Sequence of human NK1 receptor (P25103 whole entry): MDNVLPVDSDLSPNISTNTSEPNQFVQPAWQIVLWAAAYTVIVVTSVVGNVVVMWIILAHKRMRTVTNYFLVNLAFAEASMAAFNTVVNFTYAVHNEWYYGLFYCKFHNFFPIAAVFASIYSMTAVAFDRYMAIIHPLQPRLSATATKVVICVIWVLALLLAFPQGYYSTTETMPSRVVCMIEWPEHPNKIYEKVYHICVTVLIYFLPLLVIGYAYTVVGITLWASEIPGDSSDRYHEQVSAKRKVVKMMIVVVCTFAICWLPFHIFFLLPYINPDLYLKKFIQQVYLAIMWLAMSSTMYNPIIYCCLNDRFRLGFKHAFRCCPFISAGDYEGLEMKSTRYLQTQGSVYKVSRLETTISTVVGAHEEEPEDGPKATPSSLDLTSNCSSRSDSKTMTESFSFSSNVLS

SMILES | Ki ([1]; second value of the cell NK1/NK3, read-out: pKi NK3 (converted)) | Ki (human NK1 receptor; first value of the cell NK1/NK3, read-out: pKi NK1 (converted)) | Ki [1, 2] | Ki (human NK1 receptor; [3])
CN(C(=O)C(C)(C)c1cc(C(F)(F)F)cc(C(F)(F)F)c1)c1cnc(N(CCO)CCCO)cc1-c1ccccc1Cl [Example 150, 2-(3,5-Bis-trifluoromethyl-phenyl)-N-{4-(2-chloro-phenyl)-6-[(2-hydroxy-ethyl)-(3-hydroxy-propyl)-amino]-pyridin-3-yl}-N-methyl-isobutyramide] | – | – | 0.977 nM | 1.32 nM
CN(C(=O)C(C)(C)c1cc(C(F)(F)F)cc(C(F)(F)F)c1)c1cnc(N2CCC[C@@H]2CO)cc1-c1ccc(Cl)cc1Cl [Example 94, (R)-2-(3,5-Bis-trifluoromethyl-phenyl)-N-[4-(2,4-dichloro-phenyl)-6-(2-hydroxymethyl-pyrrolidin-1-yl)-pyridin-3-yl]-N-methyl-isobutyramide] | – | – | 14.8 nM | 4.27 nM
C[C@H](O)[C@H](CO)Nc1cc(-c2ccccc2Cl)c(N(C)C(=O)C(C)(C)c2cc(C(F)(F)F)cc(C(F)(F)F)c2)cn1 [Example 147, (1S,2S)-2-(3,5-Bis-trifluoromethyl-phenyl)-N-[4-(2-chloro-phenyl)-6-(2-hydroxy-1-hydroxymethyl-propylamino)-pyridin-3-yl]-N-methyl-isobutyramide] | – | – | 10.5 nM | 0.724 nM
Cc1cc(F)ccc1-c1cc(N2C[C@H](O)C[C@H]2CO)ncc1N(C)C(=O)C(C)(C)c1cc(C(F)(F)F)cc(C(F)(F)F)c1 [Example 158, (2S,4R)-2-(3,5-Bis-trifluoromethyl-phenyl)-N-[4-(4-fluoro-2-methyl-phenyl)-6-(4-hydroxy-2-hydroxymethyl-pyrrolidin-1-yl)-pyridin-3-yl]-N-methyl-isobutyramide] | – | – | 0.955 nM | 1.66 nM
CN(C(=O)C(C)(C)c1cc(C(F)(F)F)cc(C(F)(F)F)c1)c1cnc(N[C@H]2CCC[C@@H]2O)cc1-c1ccccc1Cl [Example 153, (1S,2S)-2-(3,5-Bis-trifluoromethyl-phenyl)-N-[4-(2-chloro-phenyl)-6-(2-hydroxy-cyclopentylamino)-pyridin-3-yl]-N-methyl-isobutyramide] | – | – | 4.07 nM | 0.49 nM

The next lines start with the values.

Ki ([1]; second value of the cell NK1/NK3, read-out: pKi NK3 (converted)) | Ki (human NK1 receptor; first value of the cell NK1/NK3, read-out: pKi NK1 (converted)) | Ki [1, 2] | Ki (human NK1 receptor; [3]) | SMILES
1.62 nM | 3.8 nM | – | – | Cc1ccncc1-c1cc(N(CCO)CCO)ncc1N(C)C(=O)C(C)(C)c1cc(C(F)(F)F)cc(C(F)(F)F)c1 [Example 293, N-{6′-[Bis-(2-hydroxy-ethyl)-amino]-4-methyl-[3,4′]bipyridinyl-3′-yl}-2-(3,5-bis-trifluoromethyl-phenyl)-N-methyl-isobutyramide]
– | – | 32.4 nM | 1.55 nM | Cc1ccccc1-c1cc(N2CC[C@H](O)[C@H](O)C2)ncc1N(C)C(=O)C(C)(C)c1cc(C(F)(F)F)cc(C(F)(F)F)c1 (racemic) [Example 185, (3RS,4SR)-2-(3,5-Bis-trifluoromethyl-phenyl)-N-(3,4-dihydroxy-4′-o-tolyl-3,4,5,6-tetrahydro-2H-[1,2′]bipyridinyl-5′-yl)-N-methyl-isobutyramide]
– | – | 9.55 nM | 1.78 nM | Cc1cc(F)ccc1-c1cc(N2CCC[C@H]2C(C)(C)O)ncc1N(C)C(=O)C(C)(C)c1cc(C(F)(F)F)cc(C(F)(F)F)c1 [Example 159, (S)-2-(3,5-Bis-trifluoromethyl-phenyl)-N-{4-(4-fluoro-2-methyl-phenyl)-6-[2-(1-hydroxy-1-methyl-ethyl)-pyrrolidin-1-yl]-pyridin-3-yl}-N-methyl-isobutyramide]
– | – | 15.8 nM | 1.86 nM | CN(C(=O)C(C)(C)c1cc(C(F)(F)F)cc(C(F)(F)F)c1)c1cnc(N2C[C@H](O)C[C@H]2CO)cc1-c1cccc(Cl)c1 [Example 206, (2S,4R)-2-(3,5-Bis-trifluoromethyl-phenyl)-N-[4-(3-chloro-phenyl)-6-(4-hydroxy-2-hydroxymethyl-pyrrolidin-1-yl)-pyridin-3-yl]-N-methyl-isobutyramide]
– | – | 20 nM | 1.23 nM | Cc1ccccc1-c1cc(N2C[C@@H](O)[C@@H](O)C2)ncc1N(C)C(=O)C(C)(C)c1cc(C(F)(F)F)cc(C(F)(F)F)c1 [Example 184, (3R,4S)-2-(3,5-Bis-trifluoromethyl-phenyl)-N-[6-(3,4-dihydroxy-pyrrolidin-1-yl)-4-o-tolyl-pyridin-3-yl]-N-methyl-isobutyramide]
